According to the kinase profiling compilation of Christmann-Franck et al. (2016):
Blank lines part the entries; values can stand above or below the molecule they belong to.

How the values were obtained:
Experiment in all cases: Caliper, Mobility shift assay off-chip
[1] = biological target: CAMK2B (human) (UniProt Q13554)
[2] = biological target: CAMK2G (human) (UniProt Q13555)
[3] = biological target: CDK3 (human) (UniProt Q00526)
[4] = biological target: CDK4 (human) (UniProt P11802)
[5] = biological target: CHEK1 (human) (UniProt O14757)
[6] = biological target: CHUK (human) (UniProt O15111)
[7] = biological target: CIT (human) (UniProt O14578)
[8] = biological target: CSNK1G3 (human) (UniProt Q9Y6M4)
[9] = biological target: CSNK2A2 (human) (UniProt P19784)
[10] = biological target: DAPK1 (human) (UniProt P53355)
[11] = biological target: EEF2K (human) (UniProt O00418)
[12] = biological target: FGFR3 (human) (UniProt P22607)
[13] = biological target: FGFR4 (human) (UniProt P22455)
[14] = biological target: MAPK7 (human) (UniProt Q13164)
[15] = biological target: MYLK2 (human) (UniProt Q9H1R3)
[16] = biological target: NEK1 (human) (UniProt Q96PY6)
[17] = biological target: NEK2 (human) (UniProt P51955)
[18] = biological target: PAK1 (human) (UniProt Q13153)
[19] = biological target: PDGFRA (human) (UniProt P16234)
[20] = biological target: PDPK1 (human) (UniProt O15530)
[21] = biological target: PLK3 (human) (UniProt Q9H4B4)
[22] = biological target: PRKACB (human) (UniProt P22694)
[23] = biological target: PRKCA (human) (UniProt P17252)
[24] = biological target: PRKG2 (human) (UniProt Q13237)
[25] = biological target: PTK6 (human) (UniProt Q13882)
[26] = biological target: RPS6KB1 (human) (UniProt P23443)
[27] = biological target: SGK2 (human) (UniProt Q9HBY8)
[28] = biological target: STK3 (human) (UniProt Q13188)
[29] = biological target: TEC (human) (UniProt P42680)
[30] = biological target: TEK (human) (UniProt Q02763)
[31] = biological target: YES1 (human) (UniProt P07947)
[32] = biological target: AURKB (human) (UniProt Q96GD4)
[33] = biological target: CSF1R (human) (UniProt P07333)
[34] = biological target: DDR2 (human) (UniProt Q16832)

Chain of CAMK2G (human) (Q13555 whole entry, looked up): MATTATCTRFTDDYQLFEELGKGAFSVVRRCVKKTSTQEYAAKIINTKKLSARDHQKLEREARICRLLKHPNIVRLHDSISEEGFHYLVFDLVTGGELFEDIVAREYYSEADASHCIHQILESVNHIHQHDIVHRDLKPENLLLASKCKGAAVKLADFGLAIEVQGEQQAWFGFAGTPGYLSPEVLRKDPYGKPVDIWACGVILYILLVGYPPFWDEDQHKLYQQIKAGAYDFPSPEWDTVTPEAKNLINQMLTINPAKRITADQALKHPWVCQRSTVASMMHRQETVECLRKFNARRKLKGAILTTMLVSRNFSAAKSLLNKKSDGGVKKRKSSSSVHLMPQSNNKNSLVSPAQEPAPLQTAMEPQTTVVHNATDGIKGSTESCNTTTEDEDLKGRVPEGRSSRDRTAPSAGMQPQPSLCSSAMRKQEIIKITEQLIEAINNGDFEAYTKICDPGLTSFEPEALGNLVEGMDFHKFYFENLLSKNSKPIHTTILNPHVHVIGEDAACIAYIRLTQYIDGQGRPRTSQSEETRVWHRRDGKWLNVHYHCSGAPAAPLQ
Chain of TEC (human) (P42680 whole entry, looked up): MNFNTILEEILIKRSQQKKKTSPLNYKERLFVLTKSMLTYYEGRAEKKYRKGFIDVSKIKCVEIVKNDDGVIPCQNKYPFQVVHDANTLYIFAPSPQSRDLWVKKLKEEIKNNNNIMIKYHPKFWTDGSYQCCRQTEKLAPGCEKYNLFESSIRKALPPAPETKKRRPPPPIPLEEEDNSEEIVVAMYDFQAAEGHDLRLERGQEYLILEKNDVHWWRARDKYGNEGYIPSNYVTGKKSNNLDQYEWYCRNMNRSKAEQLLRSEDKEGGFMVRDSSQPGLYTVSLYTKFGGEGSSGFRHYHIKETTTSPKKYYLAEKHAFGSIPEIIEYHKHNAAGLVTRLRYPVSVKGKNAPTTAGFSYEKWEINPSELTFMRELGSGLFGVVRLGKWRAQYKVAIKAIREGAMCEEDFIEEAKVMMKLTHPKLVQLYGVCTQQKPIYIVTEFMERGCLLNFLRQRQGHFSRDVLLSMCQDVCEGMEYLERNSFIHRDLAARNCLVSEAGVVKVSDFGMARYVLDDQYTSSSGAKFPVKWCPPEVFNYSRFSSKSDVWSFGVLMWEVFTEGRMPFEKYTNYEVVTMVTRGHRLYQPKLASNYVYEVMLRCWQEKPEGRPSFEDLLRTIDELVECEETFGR
Chain of TEK (human) (Q02763 whole entry, looked up): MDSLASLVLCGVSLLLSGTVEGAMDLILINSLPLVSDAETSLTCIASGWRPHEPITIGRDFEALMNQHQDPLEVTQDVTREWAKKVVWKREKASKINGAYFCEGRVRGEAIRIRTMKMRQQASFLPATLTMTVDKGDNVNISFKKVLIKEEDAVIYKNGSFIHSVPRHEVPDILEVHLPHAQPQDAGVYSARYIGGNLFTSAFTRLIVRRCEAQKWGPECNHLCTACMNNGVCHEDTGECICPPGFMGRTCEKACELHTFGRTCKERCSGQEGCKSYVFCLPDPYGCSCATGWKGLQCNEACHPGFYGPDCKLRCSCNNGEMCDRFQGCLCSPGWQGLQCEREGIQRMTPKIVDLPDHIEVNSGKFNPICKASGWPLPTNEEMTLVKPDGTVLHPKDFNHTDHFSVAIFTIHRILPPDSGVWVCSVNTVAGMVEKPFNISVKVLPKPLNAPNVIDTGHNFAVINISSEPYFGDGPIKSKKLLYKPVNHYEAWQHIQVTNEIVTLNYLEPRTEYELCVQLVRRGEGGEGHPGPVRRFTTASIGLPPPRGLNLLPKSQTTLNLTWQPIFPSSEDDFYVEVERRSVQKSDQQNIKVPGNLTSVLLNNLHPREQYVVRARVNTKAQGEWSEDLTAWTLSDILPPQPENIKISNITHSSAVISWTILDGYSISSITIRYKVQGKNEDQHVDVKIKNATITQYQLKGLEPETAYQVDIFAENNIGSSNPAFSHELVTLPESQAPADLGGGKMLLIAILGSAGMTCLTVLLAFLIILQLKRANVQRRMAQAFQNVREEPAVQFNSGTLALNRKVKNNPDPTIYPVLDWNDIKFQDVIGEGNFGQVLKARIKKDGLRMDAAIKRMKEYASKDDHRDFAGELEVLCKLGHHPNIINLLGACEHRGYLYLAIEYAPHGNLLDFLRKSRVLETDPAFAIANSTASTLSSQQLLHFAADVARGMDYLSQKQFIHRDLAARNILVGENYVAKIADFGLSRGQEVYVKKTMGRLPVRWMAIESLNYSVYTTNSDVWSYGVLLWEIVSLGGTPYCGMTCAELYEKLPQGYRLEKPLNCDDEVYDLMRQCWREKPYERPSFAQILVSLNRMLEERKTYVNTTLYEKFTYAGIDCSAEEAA
Chain of MYLK2 (human) (Q9H1R3 whole entry, looked up): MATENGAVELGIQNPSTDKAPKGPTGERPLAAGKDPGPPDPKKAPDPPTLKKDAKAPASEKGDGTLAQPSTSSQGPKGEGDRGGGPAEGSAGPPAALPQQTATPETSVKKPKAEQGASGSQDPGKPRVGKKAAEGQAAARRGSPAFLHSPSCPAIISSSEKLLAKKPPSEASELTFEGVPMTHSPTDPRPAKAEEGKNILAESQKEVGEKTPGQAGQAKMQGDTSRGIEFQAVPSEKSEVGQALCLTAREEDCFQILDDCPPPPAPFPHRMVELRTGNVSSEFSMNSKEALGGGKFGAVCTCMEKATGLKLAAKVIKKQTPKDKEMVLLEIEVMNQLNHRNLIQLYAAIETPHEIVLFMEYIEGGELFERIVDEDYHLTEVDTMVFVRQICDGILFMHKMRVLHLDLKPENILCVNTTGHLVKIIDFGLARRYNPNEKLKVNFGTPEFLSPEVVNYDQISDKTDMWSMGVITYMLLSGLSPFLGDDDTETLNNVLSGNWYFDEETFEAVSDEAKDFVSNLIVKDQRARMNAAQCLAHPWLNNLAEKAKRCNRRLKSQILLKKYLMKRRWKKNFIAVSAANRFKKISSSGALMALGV
Chain of CAMK2B (human) (Q13554 whole entry, looked up): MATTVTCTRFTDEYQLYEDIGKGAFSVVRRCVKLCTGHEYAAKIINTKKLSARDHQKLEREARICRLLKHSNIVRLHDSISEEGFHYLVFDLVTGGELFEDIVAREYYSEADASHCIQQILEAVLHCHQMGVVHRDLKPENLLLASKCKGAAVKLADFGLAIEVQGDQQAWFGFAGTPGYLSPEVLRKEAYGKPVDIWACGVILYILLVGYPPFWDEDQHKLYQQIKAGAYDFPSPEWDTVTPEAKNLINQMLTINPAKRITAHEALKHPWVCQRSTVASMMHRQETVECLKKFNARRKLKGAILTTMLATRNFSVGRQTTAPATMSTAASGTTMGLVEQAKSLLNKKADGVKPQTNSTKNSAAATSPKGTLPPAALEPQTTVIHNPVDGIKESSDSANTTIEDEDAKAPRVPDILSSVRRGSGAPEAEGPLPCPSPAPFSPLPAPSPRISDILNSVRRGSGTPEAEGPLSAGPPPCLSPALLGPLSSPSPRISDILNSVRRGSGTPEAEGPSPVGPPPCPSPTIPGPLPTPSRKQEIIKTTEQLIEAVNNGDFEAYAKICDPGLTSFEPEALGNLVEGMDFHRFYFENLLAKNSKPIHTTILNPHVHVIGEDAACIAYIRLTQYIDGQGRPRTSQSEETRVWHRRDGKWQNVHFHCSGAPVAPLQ
Chain of CSNK2A2 (human) (P19784 whole entry, looked up): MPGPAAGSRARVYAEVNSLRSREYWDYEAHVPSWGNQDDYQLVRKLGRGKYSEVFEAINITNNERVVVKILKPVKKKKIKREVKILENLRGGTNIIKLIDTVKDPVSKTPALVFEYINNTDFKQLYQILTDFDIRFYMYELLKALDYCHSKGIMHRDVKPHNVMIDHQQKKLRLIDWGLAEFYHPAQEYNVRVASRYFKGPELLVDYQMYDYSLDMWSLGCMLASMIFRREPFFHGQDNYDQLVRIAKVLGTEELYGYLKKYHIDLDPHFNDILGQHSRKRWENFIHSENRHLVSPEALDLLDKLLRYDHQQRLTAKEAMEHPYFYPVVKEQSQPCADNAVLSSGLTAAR
Chain of PLK3 (human) (Q9H4B4 whole entry, looked up): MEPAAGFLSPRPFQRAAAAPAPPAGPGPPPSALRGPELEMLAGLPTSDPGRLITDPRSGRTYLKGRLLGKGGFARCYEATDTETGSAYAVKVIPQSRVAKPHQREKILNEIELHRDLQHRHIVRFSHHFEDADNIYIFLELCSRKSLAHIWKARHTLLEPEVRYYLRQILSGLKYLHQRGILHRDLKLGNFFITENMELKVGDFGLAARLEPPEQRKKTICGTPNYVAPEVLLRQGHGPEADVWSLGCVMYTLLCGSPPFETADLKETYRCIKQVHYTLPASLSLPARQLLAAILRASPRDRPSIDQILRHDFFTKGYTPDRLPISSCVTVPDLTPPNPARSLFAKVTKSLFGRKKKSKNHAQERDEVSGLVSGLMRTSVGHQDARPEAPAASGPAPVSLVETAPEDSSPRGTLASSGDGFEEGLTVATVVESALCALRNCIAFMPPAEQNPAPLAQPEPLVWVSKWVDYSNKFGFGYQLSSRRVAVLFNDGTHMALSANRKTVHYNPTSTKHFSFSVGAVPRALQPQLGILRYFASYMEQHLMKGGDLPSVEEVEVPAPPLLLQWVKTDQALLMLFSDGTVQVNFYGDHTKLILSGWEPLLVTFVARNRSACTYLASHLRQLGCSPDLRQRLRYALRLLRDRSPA
Chain of PTK6 (human) (Q13882 whole entry, looked up): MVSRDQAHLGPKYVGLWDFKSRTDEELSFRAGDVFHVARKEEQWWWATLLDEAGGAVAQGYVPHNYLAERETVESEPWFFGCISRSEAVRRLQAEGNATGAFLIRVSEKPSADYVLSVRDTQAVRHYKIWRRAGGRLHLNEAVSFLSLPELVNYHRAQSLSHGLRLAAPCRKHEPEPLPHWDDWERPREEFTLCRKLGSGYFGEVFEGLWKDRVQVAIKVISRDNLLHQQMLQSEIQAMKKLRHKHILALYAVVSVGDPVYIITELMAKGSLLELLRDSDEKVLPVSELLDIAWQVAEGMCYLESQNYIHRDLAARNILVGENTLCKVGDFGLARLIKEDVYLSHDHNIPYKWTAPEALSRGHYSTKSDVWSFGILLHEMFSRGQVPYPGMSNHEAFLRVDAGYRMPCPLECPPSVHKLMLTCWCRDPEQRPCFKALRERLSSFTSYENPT

inhibition ([1]; compound 0.02 µM): -6.4% | inhibition ([1]; compound 0.2 µM): -7% | inhibition ([2]; compound 0.02 µM): -7% | inhibition ([2]; compound 0.2 µM): 2% | inhibition ([3]; compound 0.02 µM): -4.1% | inhibition ([3]; compound 0.2 µM): -2.4% | inhibition ([4]; compound 0.02 µM): -2.3% | inhibition ([4]; compound 0.2 µM): -2.5% | inhibition ([5]; compound 0.02 µM): -2.7% | inhibition ([5]; compound 0.2 µM): 5.3% | inhibition ([6]; compound 0.02 µM): 3.4% | inhibition ([6]; compound 0.2 µM): 1% | inhibition ([7]; compound 0.02 µM): -4.9% | inhibition ([7]; compound 0.2 µM): -2.3% | inhibition ([8]; compound 0.02 µM): -1.4% | inhibition ([8]; compound 0.2 µM): -6.9% | inhibition ([9]; compound 0.02 µM): -3.5% | inhibition ([9]; compound 0.2 µM): 0.9% | inhibition ([10]; compound 0.02 µM): 0.7% | inhibition ([10]; compound 0.2 µM): 1.1% | inhibition ([11]; compound 0.02 µM): -3.9% | inhibition ([11]; compound 0.2 µM): 0% | inhibition ([12]; compound 0.02 µM): 5.5% | inhibition ([12]; compound 0.2 µM): 51.7% | inhibition ([13]; compound 0.02 µM): -7.4% | inhibition ([13]; compound 0.2 µM): 8.8% | inhibition ([14]; compound 0.02 µM): -9.1% | inhibition ([14]; compound 0.2 µM): -8.8% | inhibition ([15]; compound 0.02 µM): -3.3% | inhibition ([15]; compound 0.2 µM): -2.4% | inhibition ([16]; compound 0.02 µM): -5.2% | inhibition ([16]; compound 0.2 µM): -6.3% | inhibition ([17]; compound 0.02 µM): -2.3% | inhibition ([17]; compound 0.2 µM): 8.8% | inhibition ([18]; compound 0.02 µM): -0.9% | inhibition ([18]; compound 0.2 µM): 1.1% | inhibition ([19]; compound 0.02 µM): 97.3% | inhibition ([19]; compound 0.2 µM): 105% | inhibition ([20]; compound 0.02 µM): -1% | inhibition ([20]; compound 0.2 µM): 0.9% | inhibition ([21]; compound 0.02 µM): 4% | inhibition ([21]; compound 0.2 µM): 5.3% | inhibition ([22]; compound 0.02 µM): -7.7% | inhibition ([22]; compound 0.2 µM): 3.1% | inhibition ([23]; compound 0.02 µM): 1.2% | inhibition ([23]; compound 0.2 µM): 12.2% | inhibition ([24]; compound 0.02 µM): -4.4% | inhibition ([24]; compound 0.2 µM): -0.6% | inhibition ([25]; compound 0.02 µM): -0.9% | inhibition ([25]; compound 0.2 µM): -0.8% | inhibition ([26]; compound 0.02 µM): 8.1% | inhibition ([26]; compound 0.2 µM): 48.1% | inhibition ([27]; compound 0.02 µM): -0.9% | inhibition ([27]; compound 0.2 µM): 8.4% | inhibition ([28]; compound 0.02 µM): -3.3% | inhibition ([28]; compound 0.2 µM): -1.9% | inhibition ([29]; compound 0.02 µM): -6.3% | inhibition ([29]; compound 0.2 µM): 9.4% | inhibition ([30]; compound 0.02 µM): -2.6% | inhibition ([30]; compound 0.2 µM): 9.5% | inhibition ([31]; compound 0.02 µM): -1.9% | inhibition ([31]; compound 0.2 µM): 17.7%
Structure (SMILES): CNC(=O)c1cc(Oc2ccc(NC(=O)Nc3ccc(Cl)c(C(F)(F)F)c3)cc2)ccn1

inhibition ([32]; compound 0.2 µM): 46% | inhibition ([32]; compound 4.0 µM): 90% | inhibition ([1]; compound 0.2 µM): 5.2% | inhibition ([1]; compound 4.0 µM): 66.5% | inhibition ([2]; compound 0.2 µM): 49.6% | inhibition ([2]; compound 4.0 µM): 96.2% | inhibition ([3]; compound 0.2 µM): 0.3% | inhibition ([3]; compound 4.0 µM): 36.6% | inhibition ([4]; compound 0.2 µM): 16.6% | inhibition ([4]; compound 4.0 µM): 62.5% | inhibition ([5]; compound 0.2 µM): 59.3% | inhibition ([5]; compound 4.0 µM): 95.2% | inhibition ([6]; compound 0.2 µM): 3% | inhibition ([6]; compound 4.0 µM): 2.9% | inhibition ([7]; compound 0.2 µM): 2.2% | inhibition ([7]; compound 4.0 µM): 29.1% | inhibition ([33]; compound 0.2 µM): 67.9% | inhibition ([33]; compound 4.0 µM): 98.9% | inhibition ([9]; compound 0.2 µM): 4.5% | inhibition ([9]; compound 4.0 µM): 41.2% | inhibition ([10]; compound 0.2 µM): 64.4% | inhibition ([10]; compound 4.0 µM): 98.7% | inhibition ([34]; compound 0.2 µM): 55.8% | inhibition ([34]; compound 4.0 µM): 98% | inhibition ([11]; compound 0.2 µM): 2.7% | inhibition ([11]; compound 4.0 µM): 4% | inhibition ([12]; compound 0.2 µM): 75% | inhibition ([12]; compound 4.0 µM): 98.4% | inhibition ([13]; compound 0.2 µM): 10.3% | inhibition ([13]; compound 4.0 µM): 62.6% | inhibition ([14]; compound 0.2 µM): -5.7% | inhibition ([14]; compound 4.0 µM): 28.8% | inhibition ([15]; compound 0.2 µM): 81.9% | inhibition ([16]; compound 0.2 µM): -2.4% | inhibition ([16]; compound 4.0 µM): -8.5% | inhibition ([17]; compound 0.2 µM): 8.3% | inhibition ([17]; compound 4.0 µM): 49.2% | inhibition ([18]; compound 0.2 µM): -2.8% | inhibition ([18]; compound 4.0 µM): 1.8% | inhibition ([19]; compound 0.2 µM): 100% | inhibition ([20]; compound 0.2 µM): -0.3% | inhibition ([20]; compound 4.0 µM): 36.5% | inhibition ([21]; compound 0.2 µM): 0.9% | inhibition ([21]; compound 4.0 µM): 0.1% | inhibition ([22]; compound 0.2 µM): -0.1% | inhibition ([22]; compound 4.0 µM): 48.3% | inhibition ([23]; compound 0.2 µM): 0.1% | inhibition ([23]; compound 4.0 µM): 28.7% | inhibition ([24]; compound 0.2 µM): 9.3% | inhibition ([24]; compound 4.0 µM): 65.5% | inhibition ([25]; compound 0.2 µM): 17.6% | inhibition ([25]; compound 4.0 µM): 82.3% | inhibition ([26]; compound 0.2 µM): 66.4% | inhibition ([26]; compound 4.0 µM): 96.6% | inhibition ([27]; compound 0.2 µM): 5.5% | inhibition ([27]; compound 4.0 µM): 57.6% | inhibition ([28]; compound 0.2 µM): 51.4% | inhibition ([28]; compound 4.0 µM): 95.7% | inhibition ([29]; compound 0.2 µM): 7.6% | inhibition ([29]; compound 4.0 µM): 31.6% | inhibition ([30]; compound 0.2 µM): -3.6% | inhibition ([30]; compound 4.0 µM): 15.3% | inhibition ([31]; compound 0.2 µM): 96.9% | inhibition ([31]; compound 4.0 µM): 101%
Structure (SMILES): CCN(CC)CCNC(=O)c1c(C)[nH]c(/C=C2\C(=O)Nc3ccc(F)cc32)c1C

inhibition ([32]; compound 0.02 µM): 2.7% | inhibition ([32]; compound 0.2 µM): 12.5% | inhibition ([1]; compound 0.02 µM): -4.2% | inhibition ([1]; compound 0.2 µM): -5.5% | inhibition ([2]; compound 0.02 µM): 1.9% | inhibition ([2]; compound 0.2 µM): 2% | inhibition ([3]; compound 0.02 µM): -2.4% | inhibition ([3]; compound 0.2 µM): -4.3% | inhibition ([4]; compound 0.2 µM): 13.2% | inhibition ([5]; compound 0.02 µM): 1.8% | inhibition ([5]; compound 0.2 µM): 0.3% | inhibition ([6]; compound 0.02 µM): -1.2% | inhibition ([6]; compound 0.2 µM): 0.9% | inhibition ([7]; compound 0.02 µM): -2.3% | inhibition ([7]; compound 0.2 µM): 0.3% | inhibition ([8]; compound 0.02 µM): 0.7% | inhibition ([8]; compound 0.2 µM): -0.3% | inhibition ([9]; compound 0.02 µM): -2.8% | inhibition ([9]; compound 0.2 µM): -1.4% | inhibition ([10]; compound 0.02 µM): 6.5% | inhibition ([10]; compound 0.2 µM): 6.7% | inhibition ([34]; compound 0.02 µM): 34.2% | inhibition ([34]; compound 0.2 µM): 85% | inhibition ([11]; compound 0.02 µM): 2.9% | inhibition ([11]; compound 0.2 µM): 4.7% | inhibition ([12]; compound 0.02 µM): 21.3% | inhibition ([12]; compound 0.2 µM): 68.5% | inhibition ([13]; compound 0.02 µM): 0.7% | inhibition ([13]; compound 0.2 µM): 29.7% | inhibition ([14]; compound 0.02 µM): -7.8% | inhibition ([14]; compound 0.2 µM): -7.6% | inhibition ([16]; compound 0.02 µM): -4.7% | inhibition ([16]; compound 0.2 µM): 3.5% | inhibition ([17]; compound 0.02 µM): 5.4% | inhibition ([17]; compound 0.2 µM): 12% | inhibition ([18]; compound 0.02 µM): -3.6% | inhibition ([18]; compound 0.2 µM): 1% | inhibition ([19]; compound 0.02 µM): 65.6% | inhibition ([19]; compound 0.2 µM): 95.6% | inhibition ([20]; compound 0.02 µM): -5% | inhibition ([20]; compound 0.2 µM): -3.3% | inhibition ([21]; compound 0.02 µM): 5.4% | inhibition ([21]; compound 0.2 µM): 5.7% | inhibition ([22]; compound 0.02 µM): -1.5% | inhibition ([22]; compound 0.2 µM): -7.3% | inhibition ([23]; compound 0.02 µM): -0.8% | inhibition ([23]; compound 0.2 µM): -1% | inhibition ([24]; compound 0.02 µM): -2.3% | inhibition ([24]; compound 0.2 µM): -2.6% | inhibition ([25]; compound 0.02 µM): 2.5% | inhibition ([25]; compound 0.2 µM): 26.2% | inhibition ([26]; compound 0.02 µM): 11.1% | inhibition ([26]; compound 0.2 µM): 20.6% | inhibition ([27]; compound 0.02 µM): 5.5% | inhibition ([27]; compound 0.2 µM): -0.1% | inhibition ([28]; compound 0.02 µM): -1.9% | inhibition ([28]; compound 0.2 µM): -4.2% | inhibition ([29]; compound 0.02 µM): 4.8% | inhibition ([29]; compound 0.2 µM): 19.7% | inhibition ([30]; compound 0.02 µM): -4.6% | inhibition ([30]; compound 0.2 µM): 2.7% | inhibition ([31]; compound 0.02 µM): 13.3% | inhibition ([31]; compound 0.2 µM): 44.3%
Structure (SMILES): Cc1ccc(Nc2nccc(N(C)c3ccc4c(C)n(C)nc4c3)n2)cc1S(N)(=O)=O
